A word on the EC50: it is the concentration needed to bring the measured effect to its halfway point. The low end stands for a more potent agent, the high end for a less potent agent.

Here are results for one compound from BindingDB's records for doi:10.1016/j.bmcl.2018.12.057 (Indian Institute of Technology Madras, 2019).

The target in the assay is Luciferin 4-monooxygenase (Photinus pyralis, UniProt P08659). The experiment in a line: Activation of firefly luciferase activity expressed in HEK293T cells after 6 hrs by luminescence assay.
Chain of Luciferin 4-monooxygenase (P08659 whole entry): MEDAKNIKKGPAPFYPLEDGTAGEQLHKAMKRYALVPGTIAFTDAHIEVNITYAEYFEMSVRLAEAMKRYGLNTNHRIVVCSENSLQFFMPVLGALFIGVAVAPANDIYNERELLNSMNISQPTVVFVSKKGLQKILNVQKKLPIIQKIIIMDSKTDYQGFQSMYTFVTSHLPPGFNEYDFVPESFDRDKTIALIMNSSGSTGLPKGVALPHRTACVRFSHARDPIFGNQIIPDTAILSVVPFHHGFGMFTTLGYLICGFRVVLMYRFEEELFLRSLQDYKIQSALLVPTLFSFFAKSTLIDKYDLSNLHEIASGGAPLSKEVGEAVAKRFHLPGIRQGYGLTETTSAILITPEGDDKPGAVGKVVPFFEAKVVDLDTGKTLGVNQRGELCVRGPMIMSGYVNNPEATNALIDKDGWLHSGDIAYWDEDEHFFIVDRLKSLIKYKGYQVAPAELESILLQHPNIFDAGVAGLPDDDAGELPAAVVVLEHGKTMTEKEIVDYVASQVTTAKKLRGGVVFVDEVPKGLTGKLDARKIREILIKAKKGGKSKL

`CCCCCCCCCCCCCC(=O)O[C@@H]1[C@@H](C)[C@@]2(O)[C@@H](C=C(CO)C[C@]3(O)C(=O)C(C)=C[C@@H]23)[C@@H]2C(C)(C)[C@]12OC(C)=O` [phorbol 13-acetate 12-myristate] came in with an EC50 of 0.01 µM.
